Results taken from ChEMBL document CHEMBL1151116, “In vitro study of the anticholinergic and antihistaminic activities of protopine and some derivatives” (J Nat Prod, 1988).

Key:
[1] = system: Ileum; experiment: Inhibition of acetylcholine-induced contraction in guinea pig ileum at 0.28 to 2.8 uM preincubated for 5 mins before acetylcholine challenge; type: functional, Cavia porcellus; design: scale not given: the % may be the effect or the level left
[2] = system: Ileum; experiment: Inhibition of acetylcholine-induced contraction in guinea pig ileum preincubated for 5 mins before acetylcholine challenge; type: functional, tissue-based, Cavia porcellus

With C[N+]1([O-])CCc2cc3c(cc2C(=O)Cc2ccc4c(c2C1)OCO4)OCO3 (stereo not drawn) the Activity [1] was 20%.

CN1[C@@H]2CC[C@H]1C[C@@H](OC(=O)C(CO)c1ccccc1)C2 (stereo partly drawn) [ATROPINE] showed a Kb ([2]; Cavia porcellus, Ileum, read-out: pA2 (converted)) of 2.04 nM.

COc1ccc(Cc2nccc3cc(OC)c(OC)cc23)cc1OC [PAPAVERINE] showed a pD2 [2] of 5.08.
